Earlier results as cited in patent US20090048316A1, “Pharmaceutical composition comprising candesartan cilexetil” (priority 2007, published 2009).
Where two headings read alike, the source gives them in different places.

## CCOc1nc2cccc(C(=O)OC(C)OC(=O)OC3CCCCC3)c2n1Cc1ccc(-c2ccccc2-c2nnn[nH]2)cc1 (racemic) [Candesartan cilexetil, (±)-1-[[(cyclohexyloxy)carbonyl]oxy]ethyl-2-ethoxy-1-[[2′-(1H-tetrazol-5-yl)[1,1′biphenyl]-4-yl]methyl]-1H-benzimidazole-7-carboxylate]
In methanol
  solubility: practically insoluble
In water
  solubility: practically insoluble
